Measurements taken from patent publication US8476317B2, “N-alkylcarbonyl-amino acid ester compounds and their use for cough and pharyngitis” (priority 2011, dated 2013).
“And” between values parts separate entries of the source, which are not always exact repeats. Equal values may be shown once.

Assays:
[1] = tested on: philtrum skin; assay: Cooling on facial (philtrum) skin, ointment; assay type: in vivo, human; details: for Philtrum Skin (min), duration of cooling: 5 mg/ml in Aquaphor ointment; for skin or eye irritancy: in vivo
From the text: A reliable place for topical application is the skin above the upper lip (above the vermilion border of the lips), on the philtrum, lateral to the philtrum until the nasolabial folds, and on the lower nostrils (subnasale). This part of the face is known to be densely innervated with cold receptors, second only to the surfaces of the eyeball and anogenitalia. At this locus, tingling, cool and cold sensations in the skin may be experienced and rated for time of onset and intensity.
The intervals for recording sensations are 5 to 10 minutes, until two successive zeroes are obtained. The results (shown in FIG. 1) are averaged values of 4 to 6 separate trials in the same individual. The data are plotted using SigmaPlot® (Systat Software, Point Richmond Calif.) and a smoothing function with a negative exponential was used for analysis and statistical fit of the results. Confirmatory trials of cooling action of the long-acting NACE compounds were obtained in 2 to 4 individuals but not quantified for some because of the large number of chemicals that were evaluated.
(§1) The onset of drug action is taken as the time to reach 2 units of coolness intensity, and offset of drug action is the time when coolness intensity drops below 2, after previously surpassing 2 units. The duration of cooling action is defined as the offset time minus the onset time. […] The quality of the sensation is noted, for example, as pure refreshing coolness, or if the sensation is accompanied by irritation (stinging or burning). The quality of the sensation is not rated for intensity.
For bioassay on the skin, approximately 30 mg was stirred and dissolved in 3 g of warm liquid Aquaphor® ointment to a yield a 40 mM (˜1% wt/vol) ointment. The exact amount was adjusted so that the molar equivalent was about 35 to 40 mM. After cooling, 40 to 70 mg of the solid ointment was placed on the tip of a plastic stick and applied to the skin above the upper lip, on the philtrum, and lateral to the philtrum, up to the nasolabial folds, of test subjects and the onset and duration of cooling sensations noted.
The intervals for recording sensations were 5 to 10 minutes, until two successive zeroes were obtained. The results (shown in FIG. 1) are averaged values of 4 to 6 separate trials in the same individual. The data are plotted using SigmaPlot® (Systat Software, Point Richmond, Calif., USA) and a smoothing function with a negative exponential was used for analysis and statistical fit of the results.
as §1, with “was” for “is”, “was also noted: such” for “is noted, for example,”
In the results of FIG. 1, the test compounds were singly applied to the skin above the upper lips as a ˜1% wt/vol (10 mg/ml) ointment. Subsequently, for the results shown in Table 3, the test dose on the philtrum was reduced to a 0.5% wt/vol (5 mg/ml) ointment. The reason for choosing a lower dose was to increase the number of trials per individual and to have a reduced chance of substances accumulating in the skin.

[2] = tested on: ocular surface; assay: Eye wipe test, duration of cooling on ocular surface; assay type: in vivo, human; details: eye wipes 1 mg/ml in 5%-95% v/v ethanol-distilled water
Description: To further document the activities fo the test molecules, the results from an eye wipe test was included. Here the test substance is applied to the closed eyelids with a towelette at a concentration of 1 mg/ml in 5%-ethanol-95%-distilled water vol/vol and the duration of cooling on the ocular surface was recorded. […] It is likely that the mucous membranes that line the ocular surface and the pharynx have similar sensory mechanisms that are somewhat different from the philtrum skin which is keratinized.

[3] = biological target: T1, TRP-M8 (Homo sapiens, UniProt Q7Z2W7); assay: TRP-M8 receptor assay; assay type: cell-based; details: for EC50: data from Prof. D. Bautista's laboratory
T1 construct: expressed in transfected cells
From the text: Psychic events such as refreshment, soothing, cooling, irritation, itch, and pain cannot be verbalized by animals (animals cannot say “it feels cold”, “ouch”, or that “it itches”). […] Receptor assays, based on cells transfected with the genes for proteins associated with thermosensation (e.g., TRP-M8, TRP-A1, TRP-V1) may be used as a model of sensory processes and provide quantitative data. […] The in vitro assay gives no information on onset and offset of action, but yields information on comparative potency of the two enantiomers. Further evaluation of the pharmacological properties of the test substances were based on direct tests in human subjects.
Thus, the D-configuration of the α-carbon of Ala is an absolute requirement for therapeutic utility in cough. This separation of activity between the D- and L-enantiomers was also apparent in the TRP-M8 receptor assay (data from Prof. D. Bautista's laboratory at the University of California at Berkeley). […] Thus, in an equal mixture (racemic) of D-Ala and L-Ala enantiomers, it is likely that ˜97% of the anti-cough activity would be contributed by the D-enantiomer (of Formula 1).

[4] = tested on: oral cavity / oropharynx; assay: Cooling in oral cavity after application on dorsal surface of tongue; assay type: in vivo, human; details: dose of 1 to 2 mg, normal subjects
Description: The subject is instructed to close and hold the substance in the mouth for at least 10 seconds and not to swallow. The description of sensations is then recorded at 5 to 10 minute intervals.
The compounds of Formula 1 are white crystalline solids at room temperatures. These compounds were tested as the pure powder (>95% purity, by HPLC analysis), or mixed 1:1 with powdered or granulated sugar. The test substances were applied at 2 to 5 mg on the mid-point of the dorsal surface of the tongue using a metal spatula or a plastic applicator. After depositing the test substance on the tongue, the subject was instructed to keep the mouth closed and allow the fluids of the mouth to inter-mix with the test substance and to distribute it to the back of the mouth (oropharynx). The presence and duration of subjective sensations from the mouth was then recorded.

T1 sequence (Q7Z2W7 whole entry, species assumed): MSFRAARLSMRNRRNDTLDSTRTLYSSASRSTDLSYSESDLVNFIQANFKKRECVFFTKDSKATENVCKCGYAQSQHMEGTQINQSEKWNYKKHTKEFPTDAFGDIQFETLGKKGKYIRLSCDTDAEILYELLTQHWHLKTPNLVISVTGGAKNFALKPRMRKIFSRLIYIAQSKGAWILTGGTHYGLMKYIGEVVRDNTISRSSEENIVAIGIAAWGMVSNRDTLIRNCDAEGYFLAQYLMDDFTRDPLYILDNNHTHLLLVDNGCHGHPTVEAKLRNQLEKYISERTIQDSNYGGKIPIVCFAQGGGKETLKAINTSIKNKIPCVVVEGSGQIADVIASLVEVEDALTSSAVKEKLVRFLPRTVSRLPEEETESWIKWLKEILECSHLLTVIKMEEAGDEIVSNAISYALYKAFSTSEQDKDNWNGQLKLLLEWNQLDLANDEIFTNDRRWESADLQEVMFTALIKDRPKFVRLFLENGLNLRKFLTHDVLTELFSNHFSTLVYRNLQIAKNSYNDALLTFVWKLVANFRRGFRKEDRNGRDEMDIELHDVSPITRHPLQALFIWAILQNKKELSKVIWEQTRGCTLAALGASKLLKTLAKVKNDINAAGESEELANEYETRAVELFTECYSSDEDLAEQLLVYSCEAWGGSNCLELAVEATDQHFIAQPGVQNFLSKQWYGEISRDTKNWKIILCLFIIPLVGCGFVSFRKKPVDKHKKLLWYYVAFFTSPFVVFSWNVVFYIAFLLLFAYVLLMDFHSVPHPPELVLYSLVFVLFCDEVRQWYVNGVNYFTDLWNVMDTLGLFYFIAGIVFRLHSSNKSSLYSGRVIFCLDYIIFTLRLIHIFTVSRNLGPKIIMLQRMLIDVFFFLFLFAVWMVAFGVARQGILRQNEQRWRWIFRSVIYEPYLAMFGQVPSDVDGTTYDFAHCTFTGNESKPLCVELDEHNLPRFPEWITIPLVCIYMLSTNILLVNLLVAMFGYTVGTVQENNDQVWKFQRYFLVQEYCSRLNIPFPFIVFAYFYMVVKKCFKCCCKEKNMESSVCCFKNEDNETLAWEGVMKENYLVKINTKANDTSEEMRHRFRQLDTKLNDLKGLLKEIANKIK

| EC50 [3] | difference of EC50, D-Ala-OEt versus L-Ala-OEt ([3]; TRP-M8 receptor assay) [fold] | Structure (SMILES) | Philtrum Skin (min), duration of cooling [1] [min] | Eyelids/Ocular Surface (min), duration of cooling [2] [min] | skin or eye irritancy [1] | duration of cooling sensations on the tongue [4] |
| --- | --- | --- | --- | --- | --- | --- |
| 18000 nM | – | CCOC(=O)C(C)NC(=O)[C@@H]1C[C@H](C)CC[C@H]1C(C)C (stereo partly drawn) [L-Ala-OEt] | 34 | 0 | – | – |
| 480 nM and 500 nM | 37 | CCOC(=O)[C@@H](C)NC(=O)[C@@H]1C[C@H](C)CC[C@H]1C(C)C [D-Ala-OEt, (R)-2-[((1R,2S,5R)-2-isopropyl-5-methyl-cyclohexanecarbonyl)-amino]-propionic acid ethyl ester] | – | 180 | without skin or eye irritancy | about 30 minutes |
| – | – | COC(=O)[C@@H](C)NC(=O)[C@@H]1C[C@H](C)CC[C@H]1C(C)C [D-Ala-OMe, (R)-2-[((1R,2S,5R)-2-isopropyl-5-methyl-cyclohexanecarbonyl)-amino]-propionic acid methyl ester] | 77 | 120 | without skin or eye irritancy | about 30 minutes |
